Experimental data as given in US12215100B2, “Anticancer compounds” (Pharma Mar, S.A., priority 2018, dated 2025).

How the values were obtained:
Format in all cases: cell-based, human
A549 = experiment: SRB colorimetric cytotoxicity assay, A549; conditions: 72 hours treatment, lung carcinoma (NSCLC)
Source text: (§1) The aim of this assay is to evaluate the in vitro cytostatic (ability to delay or arrest tumor cell growth) or cytotoxic (ability to kill tumor cells) activity of the samples being tested.
(§2) A colorimetric assay, using sulforhodamine B (SRB) reaction has been adapted to provide a quantitative measurement of cell growth and viability (following the technique described by V. Vichai and K. Kirtikara (2006) Nature Protoc. 1, 1112-1116.)
(§3) This form of assay employs 96-well cell culture microplates. All the cell lines used in this study were obtained from the American Type Culture Collection (ATCC), unless otherwise indicated, and derive from different types of human cancer.
(§4) Cells were maintained in Dulbecco's Modified Eagle Medium (DMEM) (for A549, HT-29 and MDA-MB-231) or RPMI (for PSN-1) supplemented with 10% Fetal Bovine Serum (FBS), 2 mM L-glutamine, 100 U/mL penicillin and 100 U/mL streptomycin at 37° C., 5% CO2 and 98% humidity. For the experiments, cells were harvested from subconfluent cultures using trypsinization and resuspended in fresh medium before counting and plating.
(§5) Cells were seeded in 96 well microtiter plates, at 5×10^3 cells per well in aliquots of 150 μL, and allowed to attach to the plate surface for 18 hours (overnight) in drug free medium. After that, one control (untreated) plate of each cell line was fixed (as described below) and used for time zero reference value. […] After 72 hours treatment, the antitumor effect was measured by using the SRB methodology: Briefly, cells were washed twice with PBS, fixed for 15 min in 1% glutaraldehyde solution at room temperature, rinsed twice in PBS, and stained in 0.4% SRB solution for 30 min at room temperature. Cells were then rinsed several times with 1% acetic acid solution and air-dried at room temperature. SRB was then extracted in 10 mM trizma base solution and the absorbance measured in an automated spectrophotometric plate reader at 490 nm. Effects on cell growth and survival were estimated by applying the NCI algorithm (Boyd M R and Pauli K D. Drug Dev Res. 1995, 34, 91-104).
(§6) Using the mean±SD of triplicates, a dose-response curve was automatically generated using nonlinear regression analysis to a 4-parameter logistic curve. Three reference parameters were calculated (NCI algorithm) by automatic interpolation: GI50=compound concentration that produces 50% cell growth inhibition, as compared to control cultures; TGI=total cell growth inhibition (cytostatic effect), as compared to control cultures, and LC50=compound concentration that produces 50% net cell killing (cytotoxic effect).

HT29 = experiment: SRB colorimetric cytotoxicity assay, HT29; conditions: 72 hours treatment, colorectal adenocarcinoma
Source text: as §1, §2, §3, §4, §5, §6

MDA-MB-231 = experiment: SRB colorimetric cytotoxicity assay, MDA-MB-231; conditions: 72 hours treatment, breast adenocarcinoma
Source text: as §1, §2, §3, §4, §5, §6

PSN-1 = experiment: SRB colorimetric cytotoxicity assay, PSN-1; conditions: 72 hours treatment, pancreatic adenocarcinoma
Source text: as §1, §2, §3, §4, §5, §6

Compound	GI50 (A549; Homo sapiens, A549, 72 h) [nM]	GI50 (HT29; Homo sapiens, HT-29, 72 h) [nM]	GI50 (MDA-MB-231; Homo sapiens, MDA-MB-231, 72 h) [nM]	GI50 (PSN-1; Homo sapiens, PSN1, 72 h) [nM]	GI50 (A549) [nM]	GI50 (HT29) [nM]	GI50 (MDA-MB-231) [nM]	GI50 (PSN-1) [nM]
C=CCOc1cc([C@@H](CCC)NC(=O)[C@]2(C)CSC(/C(C)=N/OCCCN)=N2)oc(=O)c1 (stereo in doubt) [Compound 153]	3.98	3.38	4.32	3.98				
C=CCOc1cc([C@@H](CCC)NC(=O)[C@]2(C)CSC(/C(C)=N/OCCCN)=N2)oc(=O)c1 (stereo in doubt) [Compound 154]					4.79	5.59	6.79	7.78
C#CCOc1cc([C@@H](CCC)NC(=O)[C@]2(C)CSC(/C(C)=N/OCCCN)=N2)oc(=O)c1 (stereo in doubt) [Compound 156]	1.28	2.43	2.6	2.43				
CCC[C@@H](NC(=O)[C@]1(C)CSC(/C(C)=N/OCCCN)=N1)c1cc(OCC2CC2)cc(=O)o1 (stereo in doubt) [Compound 158]	5.43	6.06	12.1	6.27				
CCC[C@@H](NC(=O)[C@]1(C)CSC(/C(C)=N/O)=N1)c1cc(OC)cc(=O)o1 [Compound 1]	11.5	14.4	34.1	28.8				
CCC[C@@H](NC(=O)[C@]1(C)CSC(/C(C)=N\O)=N1)c1cc(OC)cc(=O)o1 [Compound 1a]	144	152	204	341				
CCC[C@@H](NC(=O)[C@]1(C)CSC(/C(C)=N/OC)=N1)c1cc(OC)cc(=O)o1 [Compound 2]	253	212	430	329				
CCC[C@@H](NC(=O)[C@]1(C)CSC(C(C)=O)=N1)c1cc(OC)cc(=O)o1 [Compound 42]	24600	8730	4640	5190				
CCC[C@@H](NC(=O)[C@]1(C)CSC(C(C)(OCC)OCC)=N1)c1cc(OCC)cc(=O)o1 [Compound 46]	2420	2180	1520	4620				
CCCCCCCOc1cc([C@@H](CCC)NC(=O)[C@]2(C)CSC(C(C)(OCC)OCC)=N2)oc(=O)c1 [Compound 48]	3430	2290	2290	2100				
CCCCCCCCCCCCCCCCCOc1cc([C@@H](CCC)NC(=O)[C@]2(C)CSC(C(C)(OCC)OCC)=N2)oc(=O)c1 [Compound 49]	1340	932	1500	1460				
C=CCOc1cc([C@@H](CCC)NC(=O)[C@]2(C)CSC(C(C)(OCC)OCC)=N2)oc(=O)c1 [Compound 50]	643	514	536	814				
C#CCOc1cc([C@@H](CCC)NC(=O)[C@]2(C)CSC(C(C)(OCC)OCC)=N2)oc(=O)c1 [Compound 51]	344	215	323	366				
CCC[C@@H](NC(=O)[C@]1(C)CSC(C(C)(OCC)OCC)=N1)c1cc(OCC2CC2)cc(=O)o1 [Compound 52]	1270	1210	1290	1770				
CCCCCCCOc1cc([C@@H](CCC)NC(=O)[C@]2(C)CSC(C(C)=O)=N2)oc(=O)c1 [Compound 61]	1840	1400	1440	1730				
CCCCCCCCCCCCCCCCCOc1cc([C@@H](CCC)NC(=O)[C@]2(C)CSC(C(C)=O)=N2)oc(=O)c1 [Compound 62]	1610	1100	1690	1640				
C=CCOc1cc([C@@H](CCC)NC(=O)[C@]2(C)CSC(C(C)=O)=N2)oc(=O)c1 [Compound 63]	815	510	484	408				
C#CCOc1cc([C@@H](CCC)NC(=O)[C@]2(C)CSC(C(C)=O)=N2)oc(=O)c1 [Compound 64]	99.9	61.5	53.8	71.7				
CCC[C@@H](NC(=O)[C@]1(C)CSC(C(C)=O)=N1)c1cc(OCC2CC2)cc(=O)o1 [Compound 65]	1890	1080	1030	1250				

Compound	GI50 (A549; Homo sapiens, A549, 72 h) [nM]	GI50 (HT29; Homo sapiens, HT-29, 72 h) [nM]	GI50 (MDA-MB-231; Homo sapiens, MDA-MB-231, 72 h) [nM]	GI50 (PSN-1; Homo sapiens, PSN1, 72 h) [nM]	GI50 (A549) [nM]	GI50 (HT29) [nM]	GI50 (MDA-MB-231) [nM]	GI50 (PSN-1) [nM]
C=Cc1cc([C@@H](CCC)NC(=O)[C@]2(C)CSC(C(C)=O)=N2)oc(=O)c1 [Compound 68]	11000	9100	6620	4690				
COc1cc([C@@H](CC(C)C)NC(=O)[C@]2(C)CSC(/C(C)=N/O)=N2)oc(=O)c1 [Compound 69]	2200	1590	1620	1520				
COc1cc([C@@H](CC(C)C)NC(=O)[C@]2(C)CSC(/C(C)=N\O)=N2)oc(=O)c1 [Compound 69a]	5060	3790	4550	6320				
CCC[C@@H](NC(=O)[C@]1(C)CSC(/C(C)=N/O)=N1)c1cc(OCC)cc(=O)o1 [Compound 70]	14.4	14.9	23.8	14.9				
CCCCOc1cc([C@@H](CCC)NC(=O)[C@]2(C)CSC(/C(C)=N/O)=N2)oc(=O)c1 [Compound 71]	7.08	7.56	14.4	10.4				
CCCCOc1cc([C@@H](CCC)NC(=O)[C@]2(C)CSC(/C(C)=N\O)=N2)oc(=O)c1 [Compound 71a]	16.5	17	35.4	30.7				
CCCCCCCOc1cc([C@@H](CCC)NC(=O)[C@]2(C)CSC(/C(C)=N/O)=N2)oc(=O)c1 [Compound 72]	25.8	30.1	30.1	21.5				
CCCCCCCOc1cc([C@@H](CCC)NC(=O)[C@]2(C)CSC(/C(C)=N\O)=N2)oc(=O)c1 [Compound 72a]	110	183	103	125				
CCCCCCCCCCCCCCCCCOc1cc([C@@H](CCC)NC(=O)[C@]2(C)CSC(/C(C)=N/O)=N2)oc(=O)c1 [Compound 73]	380	396	330	347				
CCCCCCCCCCCCCCCCCOc1cc([C@@H](CCC)NC(=O)[C@]2(C)CSC(/C(C)=N\O)=N2)oc(=O)c1 [Compound 73a]	64.4	62.7	66	59.4				
C=CCOc1cc([C@@H](CCC)NC(=O)[C@]2(C)CSC(/C(C)=N/O)=N2)oc(=O)c1 [Compound 74]	4.17	2.94	4.91	3.19				
C=CCOc1cc([C@@H](CCC)NC(=O)[C@]2(C)CSC(/C(C)=N\O)=N2)oc(=O)c1 [Compound 74a]	8.1	7.61	9.82	12.5				
C#CCOc1cc([C@@H](CCC)NC(=O)[C@]2(C)CSC(/C(C)=N/O)=N2)oc(=O)c1 [Compound 75]	1.01	0.962	1.38	1.18				
C#CCOc1cc([C@@H](CCC)NC(=O)[C@]2(C)CSC(/C(C)=N\O)=N2)oc(=O)c1 [Compound 75a]	2.12	1.18	2.71	2				
CCC[C@@H](NC(=O)[C@]1(C)CSC(/C(C)=N/O)=N1)c1cc(OCC2CC2)cc(=O)o1 [Compound 76]	3.56	3.8	3.8	3.08				
CCC[C@@H](NC(=O)[C@]1(C)CSC(/C(C)=N\O)=N1)c1cc(OCC2CC2)cc(=O)o1 [Compound 76a]	3.8	4.27	4.51	4.51				
CCC[C@@H](NC(=O)[C@]1(C)CSC(/C(C)=N/O)=N1)c1cc(N(CC)CC)cc(=O)o1 [Compound 77]	2150	1180	1960	2370				
CCC[C@@H](NC(=O)[C@]1(C)CSC(/C(C)=N/O)=N1)c1cc(C)cc(=O)o1 [Compound 78]	24.9	43.8	43.8	32.8				
